The values below come from patent publication US8541607B2, “Disulfide, sulfide, sulfoxide, and sulfone derivatives of cyclic sugars and uses thereof” (Lacer, S.A., priority 2003, dated 2013).

The test system of test [1] is U937 monocyte adhesion to activated HMEC-1 human endothelial cells. As to the kind of experiment: Inhibition of U937 monocyte adhesion to TNF-α activated HMEC-1. The conditions noted are these: HMEC-1 activated by TNF-α (50 ng/ml); mean ± s.e.m. In kind it is cell-based. The source says: The methods used in the assays to determine the effect of the compounds on platelet and monocyte adhesion to human endothelial cells are substantially the same as described in the following references: • Del Maschio A. et al., J Cell Biol 1996; 135: 497-510 • Bombeli T. et al., Blood 1999; 93: 3831-3838 • Colomé C. et al; Atherosclerosis 2000; 149: 295-302; and • Martin-Satue M. at al; British Journal of Cancer 1999; 80; 1169-1174
The adhesion of the U937-monocyte cells to confluent human microvasculature endothelial cells (HMEC-1) activated by means of TNF-α (50 ng/ml) and the platelets to human umbilical endothelial cells (HUVEC) were the methods used to determine the inhibitory effect of compounds on cellular adhesion. The adhesion of monocytes previously labeled with calcein-2M (Molecular Probes) to HMEC-1 activated by TNF-α, was assessed by determination of the associated-cell fluorescence. The adhesion of washed human platelets previously labeled with MoAb against CD36-FITC to activated-HUVEC (50 μg/ml of LDL minimally modified, LDLmm) was determined by Laser Scanning Cytometry (LSC, Olympus) determining the associated-cell fluorescence. Results are expressed as the percentage of inhibition respect to control (adhesion of the cells in the absence of compounds).

Test [2] deals with human microvascular endothelial cells (HMEC-1). As to the kind of experiment: Inhibition of LDL-Dil transcytosis through HMEC-1. In kind it is cell-based. The note with it: 2 h, mean ± s.e.m.; for Inhibition of LDL transcytosis, % of inhibition to control, Stimulated cells: HMEC-1 activated with 100 μM histamine; for Inhibition of LDL transcytosis, % of inhibition to control, Resting cells: non activated HMEC-1. From the text:
The method used in the assays to determine the effect of the compounds on LDL transcytosis in human microvascular endothelial cells is substantially the same as described in Colomé C. et al; Atherosclerosis 2000; 149: 295-302. This test allows a prediction on the anti-atherosclerotic potential of the compounds, since the accumulation of LDL in the vascular wall as a consequence of a vascular endothelial cell active transport is one of the first steps in the development of atherosclerosis.
The method used in the assays to isolate LDL particles from fresh human plasma and the labelling with Di1 is substantially the same as described in Pedreño J. et al., Atherosclerosis 2001; 155: 99-112, and Stephan Z. F. and Yuracheck E. C. J. Lipid Res. 1993; 34:325-330
Activated (100 μM histamine) and non activated HMEC-1 were cultivated in the upper well of inserted of coculture until to reach confluence (Falcon HTS FluorBloK). Then, LPL-Dil (up to 200 μg/ml) was added and cells were incubated for 2 h in the presence and absence of compounds. After these two hours, transcytosis of LDL-Dil particles through endothelial cells was assessed by determination of the presence of fluorescence in the lower well of insert of coculture. Results are expressed as percentage of inhibition respect to control in the absence of compounds).

For a further test, the system named is arterial rings. As to the kind of experiment: Test of vasorelaxation on arterial rings contracted with phenylephrine. In kind it is cell-based. The conditions noted are these: artery ring contracted with 1 μM Phenylephrine; mean ± s.d.; read-out: EC50 (vasodilatation equal to 50% of the maximum tone). On the procedure: The method used in the assays is substantially the same as described in following references: • * Furchgot, R. F., “Methods in nitric oxide research”; Feelisch & Stamler, eds., John Wiley & Sons, Chichester, England, pp 567-581. • * Trongvanbichnam K., et al., Jpn. J. Pharmacol. 71 (1996); 167-173. • * Sales, E., at al., Eur. J. Pharmacol. 258 (1994); 47-55.
The different compounds are tested at 5 different concentrations, at a concentration range from 0.0001 to 10 mM, using from 6 to 9 arterial rings for each compound. The obtained results are compared to those from the isosorbide 5-mononitrate, which is used as reference product.
The results are shown in table 1 below and are provided as EC50 (effective concentration 50), which is the concentration of each of the tested, compounds yielding a vasodilatation equal to 50% of the maximum tone at which the artery ring has been contracted with 1 μM of Phenylephrine.

The subject of the next test is HUVEC cells. As to the kind of experiment: In vitro protection against cytotoxicity induced by oxygen radicals (peroxynitrite), XTT method. In kind it is cell-based, human. The conditions noted are these: HUVEC pre-treated with 50 μM compound for one hour, then 800 μM peroxynitrite overnight. From the text: The method used is substantially the same as described by Caveda L., et al. (J. Clin. Invest. […]; 98: 886-893).
For the determination of the capacity to inhibit the cytotoxicity induced by oxygen radicals Human Umbilical Vein Endothelial Cells (HUVEC) were used. HUVEC were isolated and cultured in M199 and 20% FCS (Fetal Calf Serum).
Test XTT assay is based on […] by the metabolically active cells of the salt of tetrazolio XTT to form an orange product, the formazan dye formed is soluble and is directly quantified using an spectrophotometer.
HUVEC cells were cultivated until a sub-confluence status in a 96 well tissue culture plate and pre-treated with 50 μM of the compound for one hour. After that, cells were treated with 800 μM of peroxynitrite for an overnight.
After overnight incubation cells were incubated with the yellow XTT solution (final concentration 0.3 mg/ml) for 4 hours. After this incubation period, orange formazan solution was formed, which was spectrophotometrically quantified using an ELISA plate reader at 450 nm
The results are shown in table 15 and are expressed as percentage of death cells.
(Formazan colour is commonly taken as a measure of viable cells.)

The subject of test [3] is Rats, left carotid artery thrombosis (FeCl3). As to the kind of experiment: In vivo antithrombotic effect, FeCl3 carotid artery thrombosis. The conditions noted are these: single oral dose of 100 mg/Kg; no occlusion during 60 min after FeCl3 patch. Details: species or system rat. On the procedure:
The method used is substantially the same as described by Kurz (Kurz K. D., et al., Thromb. Res. 1990, 60:269-280) and modified by Feuerstein (Feuerstein G. Z., et al., Artherioscler. Thromb. Vase. Biol. 1999, 19: 2554-25562).
Rats received a single oral dose of 100 mg/Kg of the compounds.
Forty-five minutes after dosing rats were anaesthetized with sodium pentobarbital (40 mg/kg, i.p.) and they were placed later dorsally on a heated (37° C.) surgical board.
The left carotid artery was isolated and a Parafilm 4 sheet (7×20 mm, American National Can) was placed under it. An electromagnetic sounding of flow (Transonic Systems Inc.) was placed on the artery to measure blood flow.
Sixty minutes after product administration, a paper patch saturated with FeCl3 solution (70%) was placed (and not removed for the whole duration of the experiment) on the left carotid artery downstream from the sounding of flow to initiate thrombosis. The blood flow was controlled during the 60 min later to the application of the patch in the artery.
The vessel was considered totally occluded by the thrombus formed when no blood flow was detected (0.0 ml/min). In this model, thrombus formation usually takes place within 15 to 20 minutes in non-treated animals.

By EC50 is commonly meant the concentration giving half of the maximal effect.

`O=[N+]([O-])O[C@@H]1CO[C@H]2[C@@H]1OC[C@@H]2S` [(1), 2-thioisosorbide 5-mononitrate]: in test [1], the “% of inhibition to control, U937 monocyte adhesion” value turned out to be 30 ± 8%. In test [2], the “Inhibition of LDL transcytosis, % of inhibition to control, Stimulated cells” value is on record as 122 ± 8% and the “Inhibition of LDL transcytosis, % of inhibition to control, Resting cells” value turned out to be 58 ± 15%. Moreover, the EC50 with arterial rings is 41 ± 6 µM. Also, the “% of death cells” value with HUVEC cells is 80%. Moreover, the “% of animals fully protected” value in test [3] stood at 100%.

Regarding `CC(=O)S[C@H]1CO[C@H]2[C@@H]1OC[C@H]2O[N+](=O)[O-]` [(12), 2-acetylthio-isosorbide-5-mononitrate], the “% of inhibition to control, U937 monocyte adhesion” value in test [1] is 15 ± 2%. In test [2], the “Inhibition of LDL transcytosis, % of inhibition to control, Stimulated cells” value is recorded as 80 ± 12% and the “Inhibition of LDL transcytosis, % of inhibition to control, Resting cells” value was determined as 51 ± 19%. Also, in the test on arterial rings, the EC50 stood at 23 ± 10 µM. In the test on HUVEC cells, the “% of death cells” value is 50%. Also, in test [3], the “% of animals fully protected” value was determined as 71%.
